In patent publication US12697331B2, “Methods of use of T-type calcium channel modulators” (PRAXIS PRECISION MEDICINES, INC., priority 2020, dated 2026):
Structures can show the parent of a compound that is named as a salt.

How the values were obtained:
[1] = Within-participant escalating dose trial Part B: safety and tolerability (TEAEs); format: in vivo, human; details: titration 20 to 120 mg per day; no maximum tolerated dosage identified; hydrochloride
[2] = molecular target: T1, hCav3.2 (Homo sapiens, UniProt O95180); experiment: PatchXpress patch clamp, tonic block (resting state, -120 mV); format: cell-based
T1 construct: expressed in transfected cells; host or cells: HEK-293 (cultured under G418 selection)
Protocol: (§1) The voltage dependence of calcium channel isoforms was determined by comparing the activity of resting (Tonic Block) and half-inactivated (Voltage Dependent Block) voltages across various concentrations of Formula (II). First, HEK-293 cells containing hCav3.1, hCav3.2, or hCav3.3 calcium channel isoforms were prepared by seeding at 2×10^6 cells per flask in culture for 2 days; the cells were then harvested at about 6×10^6 cells. Harvested cells were washed once in DPBS for approximately 30 minutes, and 1 mL of 1× (0.05%) Trypsin-EDTA was added, swirled, and allowed to sit on the cells for approximately 4 minutes. 10 mL of warmed DMEM high glucose media supplemented with 10% fetal bovine serum, 2 mM sodium pyruvate, 10 mM HEPES, and 400 μg/mL G418 was added, and the cells were triturated until a single cell suspension was […]. Cells were placed in a 250 mL centrifuge tube with 30 mL warmed media and gently rocked at 28° C. for approximately 1 hour. Cell aliquots of 5 mLs (1×10^6 cells) were then centrifuged at 100× for 2 minutes, and supernatant was removed. Next, 100 μl of external recording solution was added to the remaining cell pellet and triturated 20 times to achieve a single cell suspension.
(§2) Immediately prior to assay, Formula (II) was diluted with DMSO to 300× the designated final concentration. All studies were performed using the Molecular Devices PatchXpress automated patch clamp platform at room temperature.
(§3) To determine the hCav3.1, hCav3.2, and hCav3.3 peak current from a resting, closed state (tonic block), currents were evokes by depolarizing pulses to −25 mV (10 ms) from −120 mV (a non-inactivated holding potential) at a frequency of 0.1 Hz. Peak current was defined as the peak inward current during Epoch 1 with no leak subtraction applied. Current stability was monitored, and the potency of each compound was determined using concentration response curves.
(§4) Pharmacology was measured during Epoch 1. Percent inhibition was calculated as: 100*((([Step 2+Step 5]/2)−Step 3)/(Step 2+Step 5/2)), wherein Step 2 is the peak current measured at baseline, Step 5 is the current measured during the wash period, and Step 3 is the peak current measured during application of the compound. The average of the final 3 consecutive currents in each experimental procedure was used for all calculations. The concentration response curve was fit with a Hill equation to derive IC50, slope, minimum response, and maximum response fitting parameters.

[3] = molecular target: T2, hCav3.3 (Homo sapiens, UniProt Q9P0X4); experiment: as above; format: cell-based
T2 construct: expressed in transfected cells; host or cells: HEK-293 (cultured under G418 selection)
Protocol: as §1, §2, §3, §4

[4] = molecular target: T3, hCav3.1 (Homo sapiens, UniProt O43497); experiment: as above; format: cell-based
T3 construct: expressed in transfected cells; host or cells: HEK-293 (cultured under G418 selection)
Protocol: as §1, §2, §3, §4

[5] = Food effect: high-fat, high-calorie meal, single 20 mg dose; format: in vivo, human; details: single 20 mg oral dose
Protocol: The effect of a high-fat, high-calorie meal on the pharmacokinetics of a compound of formula (II) was evaluated in an open-label, sequential fashion following a single 20 mg dose of formulation 5 in participants who had previously received a 20 mg dose of formulation 5 under fasted conditions.

[6] = test system: NREM sigma, EO and EC gamma absolute power; experiment: Population PKPD modelling of EEG power versus model-predicted plasma concentration (NONMEM); format: in vivo, human
Protocol: The pharmacokinetic/pharmacodynamic (PKPD) effects of administration a compound of formula (II) on EEG were also evaluated. The recording of the NREM sigma absolute power was reported as a single summary value of a single night of sleep following each dose on pre-specified days (baseline and Days 4, 8 and 12 for Example 11, Part A and Days 10, 17, 24, and 31 for Part B, as set forth in Tables 22 and 23, above. Each NREM sigma absolute power value was paired with a model predicted average plasma concentration (Cave) that corresponded to the 24-hour EEG recording period on the respective study day. For example, if the period of EEG recording for an individual was from 6 am on Day 4 to 6 am on Day 5, then the corresponding Cave was calculated as the average of the individual's model-predicted concentrations (sampled every 30 minutes) from that same time period. The resulting PKPD data were analyzed in a mixed-effects modelling framework using NONlinear Mixed Effects Modeling (NONMEM) software. The change from baseline NREM sigma absolute power was specified as the outcome and the primary explanatory variable was the Cave of a compound of formula (II).
The eyes open (EO) and eyes closed (EC) gamma absolute power for each individual was also estimated at specific time points across the study days.
The population PK model was used to generate Cave for NREM sigma absolute power and concentrations for EO and EC gamma absolute power. For NREM sigma absolute power, the Cave was computed for the final day of each dose level over the EEG collection interval. For EO and EC gamma absolute power, concentrations at 4 hours post-dose and 23.75 hours post-dose were generated on the final day of each dose level. The final population PKPD models for NREM sigma absolute power and EO and EC gamma absolute power were then used to generate corresponding EEG responses.

[7] = test system: sigma band EEG power during NREM sleep; experiment: 24-hour EEG/PSG: sigma band EEG power during NREM sleep; format: in vivo, human
Protocol: The effects of multiple doses of a wider dose range (Part A: 5, 10, 20 mg; Part B: 60, 80, 100, 120 mg) on sigma band EEG power during NREM sleep were also evaluated as part of the protocol described in Example 11, above. 24-hour EEG/PSG recordings were performed the day before dosing (baseline day) and after dosing on Days 4, 8, and 12 (for Part A) or Days 10, 17, 24, and 31 (for Part B). Part B also included placebo-treated participants for statistical comparisons.

T2 sequence (Q9P0X4 whole entry): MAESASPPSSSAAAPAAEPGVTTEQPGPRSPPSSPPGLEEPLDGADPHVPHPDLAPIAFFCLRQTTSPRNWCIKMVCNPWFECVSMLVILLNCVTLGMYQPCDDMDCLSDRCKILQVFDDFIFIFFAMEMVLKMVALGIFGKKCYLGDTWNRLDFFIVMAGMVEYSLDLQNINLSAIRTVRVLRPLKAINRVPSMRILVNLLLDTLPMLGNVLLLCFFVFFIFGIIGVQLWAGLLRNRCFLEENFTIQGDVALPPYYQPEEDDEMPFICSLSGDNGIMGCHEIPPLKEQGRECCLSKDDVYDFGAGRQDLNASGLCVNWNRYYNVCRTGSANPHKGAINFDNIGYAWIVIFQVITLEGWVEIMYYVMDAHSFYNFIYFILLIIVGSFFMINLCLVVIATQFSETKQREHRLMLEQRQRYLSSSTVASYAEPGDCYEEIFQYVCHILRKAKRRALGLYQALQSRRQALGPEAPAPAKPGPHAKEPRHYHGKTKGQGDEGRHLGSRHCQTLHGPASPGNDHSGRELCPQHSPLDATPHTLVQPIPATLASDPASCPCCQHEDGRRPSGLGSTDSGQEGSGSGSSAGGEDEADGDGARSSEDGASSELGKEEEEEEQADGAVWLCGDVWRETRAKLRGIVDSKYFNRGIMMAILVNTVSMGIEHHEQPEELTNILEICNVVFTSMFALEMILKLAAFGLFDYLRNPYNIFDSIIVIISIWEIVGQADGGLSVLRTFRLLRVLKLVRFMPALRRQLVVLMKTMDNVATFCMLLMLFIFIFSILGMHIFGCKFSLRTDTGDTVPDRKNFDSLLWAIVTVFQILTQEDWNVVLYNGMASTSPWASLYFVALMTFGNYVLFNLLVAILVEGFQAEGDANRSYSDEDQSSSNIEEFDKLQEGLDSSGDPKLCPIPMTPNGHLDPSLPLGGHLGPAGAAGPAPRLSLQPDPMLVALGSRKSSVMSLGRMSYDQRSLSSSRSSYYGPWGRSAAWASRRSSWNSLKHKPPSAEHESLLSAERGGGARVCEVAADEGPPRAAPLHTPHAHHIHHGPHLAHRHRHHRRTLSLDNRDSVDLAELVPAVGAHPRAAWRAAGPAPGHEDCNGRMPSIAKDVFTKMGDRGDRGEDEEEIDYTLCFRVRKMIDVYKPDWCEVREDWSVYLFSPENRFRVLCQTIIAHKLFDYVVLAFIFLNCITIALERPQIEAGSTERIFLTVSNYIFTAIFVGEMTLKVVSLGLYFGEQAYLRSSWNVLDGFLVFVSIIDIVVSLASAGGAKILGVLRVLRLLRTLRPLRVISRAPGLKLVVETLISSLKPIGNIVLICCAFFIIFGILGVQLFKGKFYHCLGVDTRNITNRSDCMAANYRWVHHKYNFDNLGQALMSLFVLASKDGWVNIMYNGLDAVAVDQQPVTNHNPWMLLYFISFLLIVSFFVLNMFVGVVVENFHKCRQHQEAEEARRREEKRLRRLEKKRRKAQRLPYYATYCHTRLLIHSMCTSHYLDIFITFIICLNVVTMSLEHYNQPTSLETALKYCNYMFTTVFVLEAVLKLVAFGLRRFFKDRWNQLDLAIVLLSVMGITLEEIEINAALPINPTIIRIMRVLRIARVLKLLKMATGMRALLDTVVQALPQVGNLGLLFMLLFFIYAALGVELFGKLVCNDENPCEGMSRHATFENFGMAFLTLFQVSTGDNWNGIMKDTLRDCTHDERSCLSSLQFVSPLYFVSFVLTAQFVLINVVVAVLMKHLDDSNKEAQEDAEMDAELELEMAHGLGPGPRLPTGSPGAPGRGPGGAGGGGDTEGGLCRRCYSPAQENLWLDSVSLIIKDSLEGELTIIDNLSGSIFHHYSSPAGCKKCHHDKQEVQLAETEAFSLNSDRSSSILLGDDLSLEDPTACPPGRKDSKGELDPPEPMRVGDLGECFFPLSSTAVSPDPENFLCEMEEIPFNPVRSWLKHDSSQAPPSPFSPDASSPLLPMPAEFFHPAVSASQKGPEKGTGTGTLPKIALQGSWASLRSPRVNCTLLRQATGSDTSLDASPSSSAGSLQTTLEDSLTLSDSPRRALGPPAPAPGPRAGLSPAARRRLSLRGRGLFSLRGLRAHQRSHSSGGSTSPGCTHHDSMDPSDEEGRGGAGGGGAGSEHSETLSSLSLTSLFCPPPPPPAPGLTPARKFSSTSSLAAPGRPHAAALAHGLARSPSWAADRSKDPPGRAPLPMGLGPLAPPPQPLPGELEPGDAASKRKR
T3 sequence (O43497 whole entry): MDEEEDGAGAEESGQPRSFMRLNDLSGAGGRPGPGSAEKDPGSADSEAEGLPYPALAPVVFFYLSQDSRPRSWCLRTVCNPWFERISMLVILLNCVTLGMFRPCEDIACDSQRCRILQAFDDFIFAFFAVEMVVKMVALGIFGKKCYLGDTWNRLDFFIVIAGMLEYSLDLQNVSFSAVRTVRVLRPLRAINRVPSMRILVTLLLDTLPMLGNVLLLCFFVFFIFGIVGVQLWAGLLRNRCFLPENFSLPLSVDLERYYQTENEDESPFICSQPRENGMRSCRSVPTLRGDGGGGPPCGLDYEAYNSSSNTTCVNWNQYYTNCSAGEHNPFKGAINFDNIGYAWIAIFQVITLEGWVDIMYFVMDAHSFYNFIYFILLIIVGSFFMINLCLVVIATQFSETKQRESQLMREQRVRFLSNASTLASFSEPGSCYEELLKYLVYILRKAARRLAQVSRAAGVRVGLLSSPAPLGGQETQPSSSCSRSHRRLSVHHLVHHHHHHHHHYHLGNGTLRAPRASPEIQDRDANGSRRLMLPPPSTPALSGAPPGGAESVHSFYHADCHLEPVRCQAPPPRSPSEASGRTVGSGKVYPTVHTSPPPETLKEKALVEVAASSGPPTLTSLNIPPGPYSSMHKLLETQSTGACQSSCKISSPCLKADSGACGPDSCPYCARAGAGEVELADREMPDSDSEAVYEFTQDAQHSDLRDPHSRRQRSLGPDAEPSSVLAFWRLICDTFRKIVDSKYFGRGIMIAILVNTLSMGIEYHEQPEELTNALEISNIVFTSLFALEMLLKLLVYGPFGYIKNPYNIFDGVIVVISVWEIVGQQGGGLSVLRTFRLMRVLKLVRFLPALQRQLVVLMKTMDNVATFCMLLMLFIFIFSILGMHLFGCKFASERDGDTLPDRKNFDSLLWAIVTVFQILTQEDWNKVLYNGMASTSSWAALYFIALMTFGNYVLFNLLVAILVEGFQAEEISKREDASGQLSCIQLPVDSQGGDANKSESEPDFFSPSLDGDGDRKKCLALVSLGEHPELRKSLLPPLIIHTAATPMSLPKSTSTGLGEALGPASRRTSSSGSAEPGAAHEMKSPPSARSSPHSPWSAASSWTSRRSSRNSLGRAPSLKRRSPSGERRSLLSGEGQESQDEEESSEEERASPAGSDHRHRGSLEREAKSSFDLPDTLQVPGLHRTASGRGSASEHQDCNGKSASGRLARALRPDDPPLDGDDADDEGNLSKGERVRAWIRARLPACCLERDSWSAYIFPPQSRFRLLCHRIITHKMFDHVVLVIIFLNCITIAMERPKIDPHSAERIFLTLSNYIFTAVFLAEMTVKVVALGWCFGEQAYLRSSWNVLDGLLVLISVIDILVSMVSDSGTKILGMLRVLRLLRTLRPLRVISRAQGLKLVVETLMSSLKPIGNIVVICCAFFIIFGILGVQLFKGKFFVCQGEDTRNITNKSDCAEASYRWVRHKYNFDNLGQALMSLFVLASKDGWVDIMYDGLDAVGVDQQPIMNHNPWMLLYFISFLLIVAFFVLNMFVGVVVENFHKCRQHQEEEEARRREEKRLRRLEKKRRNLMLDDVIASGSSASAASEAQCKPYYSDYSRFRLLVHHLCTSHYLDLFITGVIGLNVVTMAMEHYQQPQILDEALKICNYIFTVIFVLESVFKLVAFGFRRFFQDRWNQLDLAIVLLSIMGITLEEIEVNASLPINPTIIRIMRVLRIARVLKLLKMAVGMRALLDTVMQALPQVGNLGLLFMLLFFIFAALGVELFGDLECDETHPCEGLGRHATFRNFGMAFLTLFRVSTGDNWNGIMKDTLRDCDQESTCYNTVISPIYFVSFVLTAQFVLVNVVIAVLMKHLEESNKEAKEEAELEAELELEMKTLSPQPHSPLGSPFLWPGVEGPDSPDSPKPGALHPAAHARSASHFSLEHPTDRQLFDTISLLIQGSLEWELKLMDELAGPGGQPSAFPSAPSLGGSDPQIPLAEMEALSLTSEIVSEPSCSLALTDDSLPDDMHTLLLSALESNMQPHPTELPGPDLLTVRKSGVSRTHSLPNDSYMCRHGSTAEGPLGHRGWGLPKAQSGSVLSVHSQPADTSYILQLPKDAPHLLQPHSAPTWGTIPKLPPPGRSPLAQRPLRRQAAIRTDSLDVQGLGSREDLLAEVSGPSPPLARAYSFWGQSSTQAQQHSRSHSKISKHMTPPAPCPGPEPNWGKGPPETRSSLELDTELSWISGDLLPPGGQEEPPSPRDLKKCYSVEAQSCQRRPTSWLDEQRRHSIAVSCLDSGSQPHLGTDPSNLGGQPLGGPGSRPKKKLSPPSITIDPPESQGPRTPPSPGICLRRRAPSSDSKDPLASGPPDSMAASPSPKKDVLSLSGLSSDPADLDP

CC(C)(C)NC(=O)CN1CCC(CNC(=O)c2cc(F)cc(Cl)c2)CC1 [compound of formula (II), N-((1-(2-(tert-butylamino)-2-oxoethyl)piperidin-4-yl)methyl)-3-chloro-5-fluorobenzamide hydrochloride]
Dose levels well-tolerated with a titrated dosing schedule [1]: up to 120 mg per day | Inhibition of peak current, tonic block, Mean ([2]; 0.09 μm): 12.6 (4) % | Inhibition of peak current, tonic block, Mean ([2]; 0.27 μm): 37.1 (6) % | Inhibition of peak current, tonic block, Mean ([2]; 0.91 μm): 55.1 (13) % | Inhibition of peak current, tonic block, Mean ([2]; 2.74 μm): 76.2% | Inhibition of peak current, tonic block, Mean ([2]; 9.13 μm): 89.7% | Inhibition of peak current, tonic block, Mean ([2]; 27.40 μm): 96.9% | Inhibition of peak current, tonic block, Mean ([2]; 91.33 μm): 98.2% | Inhibition of peak current, tonic block, Mean ([3]; 0.09 μm): 3.8 (7) % | Inhibition of peak current, tonic block, Mean ([3]; 0.27 μm): 23.0 (11) % | Inhibition of peak current, tonic block, Mean ([3]; 0.91 μm): 54.5 (5) % | Inhibition of peak current, tonic block, Mean ([3]; 2.74 μm): 77.1 (6) % | Inhibition of peak current, tonic block, Mean ([3]; 9.13 μm): 92.1 (5) % | Inhibition of peak current, tonic block, Mean ([3]; 27.40 μm): 94.6 (5) % | Inhibition of peak current, tonic block, Mean ([4]; 0.09 μm): 8.8 (7) % | Inhibition of peak current, tonic block, Mean ([4]; 0.27 μm): 29.4 (11) % | Inhibition of peak current, tonic block, Mean ([4]; 0.91 μm): 50.2 (9) % | Inhibition of peak current, tonic block, Mean ([4]; 2.74 μm): 67.5 (10) % | Inhibition of peak current, tonic block, Mean ([4]; 9.13 μm): 76.6 (9) % | Inhibition of peak current, tonic block, Mean ([4]; 27.40 μm): 89.5 (4) % | AUClast Ratio (fed/fasted) [5]: 1.14 | AUC∞ Ratio (fed/fasted) [5]: 1.15 | Cmax Ratio (fed/fasted) [5]: 1.49 | Cave at which maximum reduction in NREM sigma absolute power appeared to occur ([6]; model predicted average plasma concentration, titrated): greater than 180 ng/mL | C(t) at which maximum reduction in EC gamma absolute power appeared to occur ([6]; titrated up to 120 mg): > 300 ng/mL | C(t) at which maximum reduction in EO gamma absolute power appeared to occur ([6]; titrated up to 120 mg): > 300 ng/mL | Effect on NREM sigma band as compared to a placebo control ([7]; 20 mg tablet and 40 mg tablet (FIG. 12)): decrease | NREM sigma power, Difference Ratio Formula (II) v. Placebo ([7]; Day 10 (60 mg), Part B): 0.550 | Dose at which the decrease in sigma band EEG power plateaued ([7]; Part B, relative to placebo-treated subjects): 80 mg
